Laboratory results as given in patent US20260070929A1, “METHODS AND COMPOSITIONS FOR MODULATING KRAS(G12D)” (Ranok Therapeutics (Hangzhou) Co. LTD., priority 2022, published 2026).
pEC50, pIC50: −log10 of the molar value. Like-named read-outs stand apart in the source and are kept apart here.

Assays:
[1] = system: SW1990 pancreatic adenocarcinoma cells [homozygous G12D]; test: Cancer cell line proliferation (CellTiter-Glo), SW1990; type: cell-based; conditions: 72 hr treatment, read-out: SW1990 CTG (EC50)
Experimental: The following cancer cell lines were employed: AGS gastric carcinoma [heterozygous G12D](ATCC, CRL-1739); A-427 lung carcinoma [heterozygous G12D](ATCC, HTB-53); ASPC1 pancreatic adenocarcinoma [homozygous G12D](ATCC, CRL-1682) and SW1990 pancreatic adenocarcinoma [homozygous G12D](ATCC CRL-2172). Cell lines were cultured essentially according to ATCC recommendations.
AGS, A-427, ASPC1, SW1990, and GP2D cells were plated in 96-well tissue culture plates at 4,000 cells/well and incubated at 37° C./5% CO2 for 72 hr in 100 μl of media. 3-fold serial dilutions of each test compound were prepared ranging from 20 μM to 1.02 nM. Each cell line was then treated with test compounds at various concentrations with a final concentration of 0.5% DMSO/well, and then incubated at 37° C./5% CO2 for 72 hr. 100 µl of CellTiter-Glo® Reagent (Promega Corporation, Madison, WI) was added to each well and processed according manufacturer's protocol. Results were analyzed and EC50 values were calculated in GraphPad 7 software.

[2] = molecular target: T1, KRAS(G12D)/SOS1 (Homo sapiens, UniProt P01116, G12D); test: KRAS(G12D)/SOS1 homogeneous time-resolved fluorescence (HTRF) assay; type: binding; conditions: absence of GTP; 4° C., 3 hr
T1 construct: purchased Cisbio 63ADK000CB17PEH
Summary of the method: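 HTRF kit assay of compound-blocked KRAS(G12D)–SOS1 interaction, run without GTP. Compounds were tested as 3-fold dilutions from 20 µM to 1.02 nM and incubated with the reaction components for 3 hr at 4 °C, sealed. IC50 was taken as the concentration giving 50% of maximal inhibition.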

[3] = system: ASPC1 pancreatic adenocarcinoma cells [homozygous G12D]; test: Cancer cell line proliferation (CellTiter-Glo), ASPC1; type: cell-based; conditions: 72 hr treatment, read-out: ASPC-1 CTG (EC50)
Summary of the method: (§1)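 Luminescent ATP read-out (CellTiter-Glo) after 72 hr drug exposure gives the EC50. Test compounds were prepared as 3-fold serial dilutions between 20 μM and 1.02 nM, with 0.5% DMSO final per well.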

[4] = system: AGS gastric carcinoma cells [heterozygous G12D]; test: Cancer cell line proliferation (CellTiter-Glo), AGS; type: cell-based; conditions: 72 hr treatment, read-out: AGS CTG (EC50)
Summary of the method: as §1

[5] = system: A-427 lung carcinoma cells [heterozygous G12D]; test: Cancer cell line proliferation (CellTiter-Glo), A-427; type: cell-based; conditions: A-427 cells, 72 hr treatment, read-out: A427 CTG (EC50)
Summary of the method: as §1

T1 sequence (P01116 1-188 isoform P01116-2 G12D): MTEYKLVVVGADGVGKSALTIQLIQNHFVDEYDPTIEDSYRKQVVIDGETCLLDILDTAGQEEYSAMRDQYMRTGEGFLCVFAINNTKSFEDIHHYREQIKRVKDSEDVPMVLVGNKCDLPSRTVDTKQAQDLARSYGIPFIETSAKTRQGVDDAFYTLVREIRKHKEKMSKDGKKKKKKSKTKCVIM

SMILES | pEC50 ([1]; Homo sapiens) | pIC50 [2] | pEC50 ([3]; Homo sapiens, ASPC1, 72 h) | pEC50 ([4]; Homo sapiens) | pEC50 ([5]; Homo sapiens) | pEC50 [1] | pEC50 [3] | pEC50 [4] | pEC50 [5]
C#Cc1cccc2cc(O)cc(-c3ncc4c(N5CC6CCC(C5)N6)nc(OCC5(CN6CCC(C(=O)N7CCN(Cc8ccc(-n9c(C(=O)NC(C)C(F)(F)F)nnc9-c9cc(C(C)C)c(O)cc9O)cc8)CC7)CC6)CC5)nc4c3F)c12 (stereo not shown) [Compound 120] | > 7.00 | > 7.00 | 6.00 to 7.00 | > 7.00 | 6.00 to 7.00 |  |  |  | 
C#Cc1cccc2cc(O)cc(-c3ncc4c(N5CC6CCC(C5)N6)nc(OCC5(CN6CCC(C(=O)N7CCN(C(=O)C8CCN(Cc9ccc%10c(c9)CN(C(=O)c9cc(C(C)C)c(O)cc9O)C%10)CC8)CC7)CC6)CC5)nc4c3F)c12 [Compound 121] | 6.00 to 7.00 | > 7.00 | < 6.00 | > 7.00 | < 6.00 |  |  |  | 
C#Cc1cccc2cccc(-c3ncc4c(N5CC6CCC(C5)N6)nc(OC[C@@H]5C[C@H](CN6CCN(Cc7ccc8c(c7)CN(C(=O)c7cc(C(C)C)c(O)cc7O)C8)CC6)CN5C)nc4c3F)c12 [Compound 122] | 6.00 to 7.00 | > 7.00 | 6.00 to 7.00 | 6.00 to 7.00 | 6.00 to 7.00 |  |  |  | 
C#Cc1cccc2cc(O)cc(-c3ncc4c(N5CC6CCC(C5)N6)nc(OC[C@@H]5C[C@H](CN6CCN(Cc7ccc(-n8c(C(=O)NCC(F)(F)F)nnc8-c8cc(C(C)C)c(O)cc8O)cc7)CC6)CN5C)nc4c3F)c12 [Compound 123] | > 7.00 | > 7.00 | 6.00 to 7.00 | > 7.00 | 6.00 to 7.00 |  |  |  | 
C#Cc1cccc2cc(O)cc(-c3ncc4c(N5CC6CCC(C5)N6)nc(OCC5(CN6CCN(CC7CCN(c8ccc(-n9c(C(=O)NCC)nnc9-c9cc(C(C)C)c(O)cc9O)cc8)CC7)CC6)CC5)nc4c3F)c12 [Compound 124] | > 7.00 | > 7.00 | 6.00 to 7.00 | > 7.00 | > 7.00 |  |  |  | 
C#Cc1cccc2cc(O)cc(-c3ncc4c(N5CC6CCC(C5)N6)nc(OCC5(CN6CCN(CC7CCN(Cc8ccc9c(c8)CN(C(=O)c8cc(C(C)C)c(O)cc8O)C9)CC7)CC6)CC5)nc4c3F)c12 [Compound 125] |  | > 7.00 |  |  |  | > 7.00 | 6.00 to 7.00 | > 7.00 | 6.00 to 7.00
C#Cc1cccc2cc(O)cc(-c3ncc4c(N5CC6CCC(C5)N6)nc(OCC5(CN6CCN(CC7CCN(Cc8ccc(-n9c(C(=O)NC(C)C(F)(F)F)nnc9-c9cc(C(C)C)c(O)cc9O)cc8)CC7)CC6)CC5)nc4c3F)c12 (stereo not shown) [Compound 126] | > 7.00 | > 7.00 | > 7.00 | > 7.00 | > 7.00 |  |  |  | 
C#Cc1cccc2cc(O)cc(-c3ncc4c(N5CC6CCC(C5)N6)nc(OCC5(CN6CCN(CC7CCN(Cc8ccc(-n9c(C(=O)NCC(F)(F)F)nnc9-c9cc(C(C)C)c(O)cc9O)cc8)CC7)CC6)CC5)nc4c3F)c12 [Compound 127] | > 7.00 | > 7.00 | > 7.00 | > 7.00 | > 7.00 |  |  |  | 
CC(C)c1cc(C(=O)N2Cc3ccc(CN4CCC(CN5CCN(CC6(COc7nc(N8CC9CCC(C8)N9)c8cnc(-c9cccc%10ccccc9%10)c(F)c8n7)CC6)CC5)CC4)cc3C2)c(O)cc1O [Compound 128] | 6.00 to 7.00 | > 7.00 | 6.00 to 7.00 | 6.00 to 7.00 | 6.00 to 7.00 |  |  |  | 
C#Cc1cccc2cc(O)cc(-c3ncc4c(N5CC6CNC(C6)C5)nc(OCC5(CN6CCN(CC7CCN(Cc8ccc9c(c8)CN(C(=O)c8cc(C(C)C)c(O)cc8O)C9)CC7)CC6)CC5)nc4c3F)c12 (stereo not shown) [Compound 129] | 6.00 to 7.00 | > 7.00 | < 6.00 | 6.00 to 7.00 | 6.00 to 7.00 |  |  |  | 
C#Cc1cccc2cc(O)cc(-c3ncc4c(N5CC6CCC(C5)N6)nc(OCC5(CN6CCN(Cc7ccc(-n8c(C(=O)NCC(F)(F)F)nnc8-c8cc(C(C)C)c(O)cc8O)cc7)CC6)CC5)nc4c3F)c12 [Compound 130] | > 7.00 | > 7.00 | 6.00 to 7.00 | > 7.00 | > 7.00 |  |  |  | 
C#Cc1cccc2cc(O)cc(-c3ncc4c(N5CC6CCC(C5)N6)nc(OCC5(CN6CCN(Cc7ccc8c(c7)CN(C(=O)c7cc(C(C)C)c(O)cc7O)C8)CC6)CC5)nc4c3F)c12 [Compound 131] | > 7.00 | > 7.00 | 6.00 to 7.00 | > 7.00 | 6.00 to 7.00 |  |  |  | 
C#Cc1cccc2cc(O)cc(-c3ncc4c(N5CC6CCC(C5)N6)nc(OCC5(CN6CCC(OC7CCN(Cc8ccc(-n9c(C(=O)NCC(F)(F)F)nnc9-c9cc(C(C)C)c(O)cc9O)cc8)CC7)CC6)CC5)nc4c3F)c12 [Compound 132] | > 7.00 | > 7.00 | > 7.00 | > 7.00 | > 7.00 |  |  |  | 
C#Cc1cccc2cc(O)cc(-c3ncc4c(N5CC6CCC(C5)N6C(=O)C(F)(F)F)nc(OCC5(CN6CCN(CC7CCN(Cc8ccc9c(c8)CN(C(=O)c8cc(C(C)C)c(O)cc8O)C9)CC7)CC6)CC5)nc4c3F)c12 [Compound 142] | 6.00 to 7.00 | 6.00 to 7.00 | 6.00 to 7.00 | 6.00 to 7.00 | 6.00 to 7.00 |  |  |  | 
C#Cc1cccc2cc(O)cc(-c3ncc4c(N5CC6CCC(C5)N6C(=O)C(F)(F)F)nc(OCC5(CN6CCN(CC7CCN(Cc8ccc(-n9c(C(=O)NCC(F)(F)F)nnc9-c9cc(C(C)C)c(O)cc9O)cc8)CC7)CC6)CC5)nc4c3F)c12 [Compound 143] | > 7.00 | 6.00 to 7.00 | 6.00 to 7.00 | > 7.00 | > 7.00 |  |  |  | 
C#Cc1cccc2cc(O)cc(-c3ncc4c(N5CC6CCC(C5)N6)nc(OCC5(CN6CCN(CC7CCN(Cc8ccc9c(c8)CN(C(=O)c8cc(C(C)C)c(OC)cc8O)C9)CC7)CC6)CC5)nc4c3F)c12 [Compound 144] | 6.00 to 7.00 | > 7.00 | 6.00 to 7.00 | > 7.00 | 6.00 to 7.00 |  |  |  | 
C#Cc1c(F)ccc2cc(O)cc(-c3ncc4c(N5CC6CCC(C5)N6)nc(OCC5(CN6CCN(CC7CCN(c8ccc(-n9c(C(=O)NCC)nnc9-c9cc(C(C)C)c(O)cc9O)cc8)CC7)CC6)CC5)nc4c3F)c12 [Compound 145] | > 7.00 | > 7.00 | 6.00 to 7.00 | > 7.00 | > 7.00 |  |  |  | 
C#Cc1c(F)ccc2cc(O)cc(-c3ncc4c(N5CC6CCC(C5)N6C(=O)C(F)(F)F)nc(OCC5(CN6CCN(CC7CCN(Cc8ccc(-n9c(C(=O)NC(C)C(F)(F)F)nnc9-c9cc(C(C)C)c(O)cc9O)cc8)CC7)CC6)CC5)nc4c3F)c12 (stereo not shown) [Compound 146] | > 7.00 | 6.00 to 7.00 | 6.00 to 7.00 | > 7.00 | > 7.00 |  |  |  | 
C#Cc1c(F)ccc2cc(O)cc(-c3ncc4c(N5CC6CCC(C5)N6C(=O)C(F)(F)F)nc(OCC5(CN6CCN(CC7CCN(Cc8ccc(-n9c(C(=O)NCC)nnc9-c9cc(C(C)C)c(O)cc9O)cc8)CC7)CC6)CC5)nc4c3F)c12 [Compound 147] | > 7.00 | > 7.00 | 6.00 to 7.00 | > 7.00 | > 7.00 |  |  |  | 
C#Cc1c(F)ccc2cc(O)cc(-c3ncc4c(N5CC6CCC(C5)N6)nc(OCC5(CN6CCN(CC7CCN(Cc8ccc(-n9c(C(=O)NCC)nnc9-c9cc(C(C)C)c(O)cc9O)cc8)CC7)CC6)CC5)nc4c3F)c12 [Compound 148] | > 7.00 | > 7.00 | > 7.00 | > 7.00 | > 7.00 |  |  |  | 
C#Cc1c(F)ccc2cc(O)cc(-c3ncc4c(N5CC6CCC(C5)N6)nc(OCC5(CN6CCN(CC7CCN(Cc8ccc(-n9c(C(=O)NCC)nnc9-c9cc(CC)c(O)cc9O)cc8)CC7)CC6)CC5)nc4c3F)c12 [Compound 149] | > 7.00 | > 7.00 | > 7.00 | > 7.00 | > 7.00 |  |  |  | 
C#Cc1cccc2cc(O)cc(-c3ncc4c(N5CC6CCC(C5)N6C(C)=O)nc(OCC5(CN6CCN(CC7CCN(Cc8ccc(-n9c(C(=O)NC(C)C(F)(F)F)nnc9-c9cc(C(C)C)c(O)cc9O)cc8)CC7)CC6)CC5)nc4c3F)c12 (stereo not shown) [Compound 150] | > 7.00 | 6.00 to 7.00 | 6.00 to 7.00 | > 7.00 | > 7.00 |  |  |  | 
C#Cc1cccc2cc(O)cc(-c3ncc4c(N5CC6CCC(C5)N6C(C)=O)nc(OCC5(CN6CCN(CC7CCN(Cc8ccc9c(c8)CN(C(=O)c8cc(C(C)C)c(O)cc8O)C9)CC7)CC6)CC5)nc4c3F)c12 [Compound 151] | 6.00 to 7.00 | > 7.00 | 6.00 to 7.00 | 6.00 to 7.00 | 6.00 to 7.00 |  |  |  | 
